Data taken from patent US9440964B2, “Pesticidal compositions and processes related thereto” (Dow AgroSciences LLC, priority 2011, dated 2016).

What was measured:
BAW (Spodoptera exigua) = experiment: Bioassay on Beet Armyworm (BAW), 128-well diet tray; assay type: in vivo; details: Spodoptera exigua, 168 h; percent mortality, second instar larvae, 50 μg/cm^2 on diet, five to seven days; read-out: Rating BAW
Description: (§1) Certain molecules disclosed in this document were tested against BAW and CEW using procedures described in the following examples. In the reporting of the results, the “BAW & CEW Rating Table” was used (See Table Section).
Bioassays on BAW (Spodoptera exigua)
(§2) Trays were covered with a clear self-adhesive cover and held at 25° C., 14:10 light-dark for five to seven days. Percent mortality was recorded for the larvae in each well; activity in the eight wells was then averaged. The results are indicated in the table entitled “Table ABC: Biological Results” (See Table Section).

CEW (Helicoverpa zea) = experiment: Bioassay on Corn Earworm (CEW), 128-well diet tray; assay type: in vivo; details: Helicoverpa zea, 168 h, percent mortality, second instar larvae, five to seven days; for pest or weed control at 0.5 µg/cm2: 0.5 μg/cm^2 on diet, read-out: Rating CEW (*Tested at 0.5 μg/cm^2); for pest or weed control at 50 µg/cm2: 50 μg/cm^2 on diet, read-out: Rating CEW
Description: as §1
Bioassays on CEW (Helicoverpa zea)
as §2

Row | SMILES | pest or weed control at 50 µg/cm2 (BAW (Spodoptera exigua)) | pest or weed control at 0.5 µg/cm2 (CEW (Helicoverpa zea)) | pest or weed control at 50 µg/cm2 (CEW (Helicoverpa zea))
1 | Cc1c(F)cccc1N/C(S)=N/C(=O)Nc1ccc(-c2ncn(-c3ccc(OC(F)(F)F)cc3)n2)cc1 [Molecule A79] | 50 to 100% | 50 to 100% | –
2 | Cc1cc(C)c(N/C(=N\C(=O)Nc2ccc(-c3ncn(-c4ccc(OC(F)(F)F)cc4)n3)cc2)SCOC(=O)C(C)C)c(C)c1 [Molecule A59] | 50 to 100% | – | 50 to 100%
3 | CC(C)c1ccccc1N1C(=O)CS/C1=N\C(=O)Nc1ccc(-c2nnc(-c3ccc(OC(F)(F)C(F)(F)F)cc3)o2)cc1 [Molecule A102, (Z)-1-(3-(2-isopropylphenyl)-4-oxothiazolidin-2-ylidene)-3-(4-(5-(4-(perfluoroethoxy)phenyl)-1,3,4-oxadiazol-2-yl)phenyl)urea] | – | 50 to 100% | –
4 | CC(C)c1cc(F)ccc1N/C(S)=N/C(=O)Nc1ccc(-c2ncn(-c3ccc(OC(F)(F)F)cc3)n2)cc1 [Molecule A116] | 50 to 100% | 50 to 100% | –
5 | CC(C)c1ccccc1N/C(S)=N/C(=O)Nc1ccc(-c2nnc(-c3ccc(OC(F)(F)C(F)(F)F)cc3)o2)cc1 [Molecule A96, N-[[(2-isopropyllphenyl)amino]thioxomethyl]-N′-((4-(5-(4-(perfluoroethoxy)phenyl)-1,3,4-oxadiazol-2-yl)phenyl))urea] | 50 to 100% | – | –
6 | Cc1ccc(N/C(S)=N/C(=O)Nc2ccc(-c3ncn(-c4ccc(OC(F)(F)F)cc4)n3)cc2)c(C(C)C)c1 [Molecule A84] | 50 to 100% | 50 to 100% | –
7 | Cc1ccc(C(C)C)c(N/C(S)=N/C(=O)Nc2ccc(-c3ncn(-c4ccc(OC(F)(F)F)cc4)n3)cc2)c1 [Molecule A83] | 50 to 100% | – | –
8 | Cc1ccc(N/C(S)=N/C(=O)Nc2ccc(-c3ncn(-c4ccc(OC(F)(F)F)cc4)n3)cc2)c(Cl)c1 [Molecule A73] | 50 to 100% | 50 to 100% | –
9 | O=C(/N=C(\S)Nc1ccccc1Cc1ccccc1)Nc1ccc(-c2ncn(-c3ccc(OC(F)(F)F)cc3)n2)cc1 [Molecule A101] | 50 to 100% | 50 to 100% | –
10 | Cc1ccccc1NC(=O)NC(=O)Nc1ccc(-c2ncn(-c3ccc(OC(F)(F)F)cc3)n2)cc1 [Molecule A51] | 50 to 100% | – | 50 to 100%
11 | CC(C)(C)c1ccccc1N/C(S)=N/C(=O)Nc1ccc(-c2ncn(-c3ccc(OC(F)(F)F)cc3)n2)cc1 [Molecule A67] | 50 to 100% | 50 to 100% | –
12 | Cc1ccccc1N/C(=N\C(=O)Nc1ccc(-c2ncn(-c3ccc(OC(F)(F)F)cc3)n2)cc1)SCOC(=O)C(C)C [Molecule A60] | 50 to 100% | – | 50 to 100%
13 | CC(=O)/C(C(=O)Nc1ccc(-c2ncn(-c3ccc(OC(F)(F)F)cc3)n2)cc1)=C(/S)Nc1ccccc1C(C)C [Molecule A20, (E)-3-hydroxy-2-((2-isopropylphenyl)carbamothioyl)-N-(4-(1-(4-(trifluoromethoxy)phenyl)-1H-1,2,4-triazol-3-yl)phenyl)but-2-enamide] | 50 to 100% | – | 50 to 100%
14 | Cc1ccc(F)c(N/C(S)=N/C(=O)Nc2ccc(-c3ncn(-c4ccc(OC(F)(F)F)cc4)n3)cc2)c1 [Molecule A89] | 50 to 100% | 50 to 100% | –
15 | Cc1cc(C)c(-n2c(C)cs/c2=N\C(=O)Nc2ccc(-c3ncn(-c4ccc(OC(F)(F)F)cc4)n3)cc2)c(C)c1 [Molecule A43, (Z)-1-(3-mesityl-4-methylthiazol-2(3H)-ylidene)-3-(4-(1-(4-(trifluoromethoxy)phenyl)-1H-1,2,4-triazol-3-yl)phenyl)urea] | – | – | 50 to 100%
16 | Cc1cccc(C)c1N/C(S)=C(\C#N)C(=O)Nc1ccc(-c2ncn(-c3ccc(OC(F)(F)F)cc3)n2)cc1 [Molecule A28, (Z)-2-Cyano-3-mercapto-3-((2,6-dimethylphenyl)amino)-N-(4-(1-(4-(trifluoromethoxy)phenyl)-1H-1,2,4-triazol-3-yl)phenyl)acrylamide] | – | – | 50 to 100%
17 | Cc1cccc(N2C(=O)CS/C2=N\C(=O)Nc2ccc(-c3ncn(-c4ccc(OC(F)(F)F)cc4)n3)cc2)c1C(C)C [Molecule A108] | 50 to 100% | 50 to 100% | –
18 | CCC(C)c1ccccc1N/C(=N\C(=O)Nc1ccc(-c2ncn(-c3ccc(OC(F)(F)F)cc3)n2)cc1)SCOC(=O)C(C)C (stereo not drawn) [Molecule A54] | 50 to 100% | – | 50 to 100%
19 | COc1ccc(N/C(=N/C(=O)Nc2ccc(-c3ncn(-c4ccc(C(F)(F)F)cc4)n3)cc2)SC)c(C)c1 [Molecule A2, (Z)-Methyl N-(4-methoxy-2-methylphenyl)-N′-((4-(1-(4-(trifluoromethyl)phenyl)-1H-1,2,4-triazol-3-yl)phenyl)carbamoyl)carbamimidothioate] | 50 to 100% | – | 50 to 100%
